Assay results reported in US4223038A, “Bicyclic β-lactam antibiotics” (Beecham Group Limited, priority 1977, dated 1980).
Where two headings read alike, the source gives them in different places.

Columns and labels:
β-lactamase, E. Coli JT4 [1] = molecular target: T1, β-lactamase, E. Coli JT4 (Escherichia coli, UniProt P62593); experiment: β-Lactamase inhibition, automated chromagenic substrate assay; format: biochemical; conditions: read-out: concentration of compound for 50% inhibition of enzyme (converted)
T1 construct: preparation not described
Protocol: (§1) Method was automated hydroxyamine assay except for compounds marked + which were tested using the automated chromagenic substrate assay.
(§2) Results are presented as concentration of compounds in μg/ml for 50% inhibition of enzyme, except a percentage indicates amount of inhibition at maximum concentration of 20 μg/ml (50 μg/ml for asterisked figures).

[2] = molecular target: T2, β-lactamase, Ent. Cloacae P99 (Enterobacter cloacae, UniProt P05364); experiment: as above; format: biochemical; conditions: for IC50: read-out: concentration of compound for 50% inhibition of enzyme (converted); for inhibition at 50 µg/mL: at 50 μg/ml (asterisked), read-out: amount of inhibition at maximum concentration
T2 construct: preparation not described
Protocol: as §1, §2

[3] = molecular target: β-lactamase, Kleb aerog E70; experiment: as above; format: biochemical
Protocol: as §1, §2

[4] = molecular target: T3, β-lactamase, Staph aureus Russel (Staphylococcus aureus, UniProt P00807); experiment: as above; format: biochemical; conditions: at 50 μg/ml (asterisked), read-out: amount of inhibition at maximum concentration
Protocol: as §1, §2

β-lactamase, E. Coli JT4 [5] = molecular target: T1, β-lactamase, E. Coli JT4; experiment: β-Lactamase inhibition, automated hydroxyamine assay; format: biochemical; conditions: for inhibition at 20 µg/mL: read-out: amount of inhibition at maximum concentration; for IC50: maximum concentration 20 μg/ml, read-out: concentration of compound for 50% inhibition of enzyme (converted)
Protocol: as §1, §2

[6] = molecular target: T2, β-lactamase, Ent. Cloacae P99; experiment: as above; format: biochemical; conditions: for IC50: maximum concentration 20 μg/ml, read-out: concentration of compound for 50% inhibition of enzyme (converted); for inhibition at 20 µg/mL: at 20 μg/ml, read-out: amount of inhibition at maximum concentration
Protocol: as §1, §2

β-lactamase, Ps aerug A [7] = experiment: as above; format: biochemical; conditions: for amount of inhibition at maximum concentration: at 20 μg/ml
Protocol: as §1, §2

[8] = test system: β-lactamase, P. Mirab C889; experiment: as above; format: biochemical; conditions: for concentration of compound for 50% inhibition of enzyme: maximum concentration 20 μg/ml
Protocol: as §1, §2

[9] = molecular target: T3, β-lactamase, Staph aureus Russel; experiment: as above; format: biochemical; conditions: at 20 μg/ml, read-out: amount of inhibition at maximum concentration
Protocol: as §1, §2

Escherichia coli 8 = experiment: Antibacterial activity in vivo, mouse intraperitoneal infection; conditions: Expt R21 and R23
Protocol: (§3) Antibacterial activity in vivo [drawing 117] Experimental model: Mouse intraperitoneal infection Micro-organism: Escherichia coli 8 suspended in 3% AL1 mucin plus 1% carboxymethylcellulose
(§4) Dosing route: Subcutaneous
(§5) Dosing schedule: 1, 1.5, 2, 2.5 hours after infection

[10] = Tolerance of maximum total dose in the mouse infection experiment; format: in vivo; conditions: mice; subcutaneous; maximum total dose 100 mg/kg
Protocol: as §3, §4, §5
Maximum total dose was 100 mg/kg and this was tolerated by the mice.

[11] = molecular target: β-lactamase, P. Mirab C889; experiment: β-Lactamase inhibition, automated chromagenic substrate assay; format: biochemical
Protocol: as §1, §2

β-lactamase, Ps aerug A [12] = experiment: as above; format: biochemical; conditions: at 50 μg/ml (asterisked)
Protocol: as §1, §2

[13] = E. Coli JT4 β-lactamase, hydroxyamine assay, at 20 μg/ml
[14] = E. Coli JT4 β-lactamase, hydroxyamine assay

T1 sequence (P62593 24-286 limits assumed): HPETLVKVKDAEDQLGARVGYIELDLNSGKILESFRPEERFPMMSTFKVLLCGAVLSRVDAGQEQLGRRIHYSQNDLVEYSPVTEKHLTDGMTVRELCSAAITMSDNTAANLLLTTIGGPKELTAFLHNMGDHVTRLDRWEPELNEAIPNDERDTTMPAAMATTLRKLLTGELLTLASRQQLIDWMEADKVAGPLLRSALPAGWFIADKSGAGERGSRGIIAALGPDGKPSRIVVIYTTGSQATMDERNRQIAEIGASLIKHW
T3 sequence (P00807 25-281): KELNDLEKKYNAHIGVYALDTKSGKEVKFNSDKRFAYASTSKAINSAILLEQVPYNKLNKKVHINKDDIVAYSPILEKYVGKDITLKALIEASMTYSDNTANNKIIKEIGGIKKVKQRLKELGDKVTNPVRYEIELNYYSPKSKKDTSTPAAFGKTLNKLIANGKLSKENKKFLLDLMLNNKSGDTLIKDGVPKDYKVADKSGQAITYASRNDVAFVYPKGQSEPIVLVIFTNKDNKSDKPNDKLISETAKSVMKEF
T2 sequence (P05364 21-381): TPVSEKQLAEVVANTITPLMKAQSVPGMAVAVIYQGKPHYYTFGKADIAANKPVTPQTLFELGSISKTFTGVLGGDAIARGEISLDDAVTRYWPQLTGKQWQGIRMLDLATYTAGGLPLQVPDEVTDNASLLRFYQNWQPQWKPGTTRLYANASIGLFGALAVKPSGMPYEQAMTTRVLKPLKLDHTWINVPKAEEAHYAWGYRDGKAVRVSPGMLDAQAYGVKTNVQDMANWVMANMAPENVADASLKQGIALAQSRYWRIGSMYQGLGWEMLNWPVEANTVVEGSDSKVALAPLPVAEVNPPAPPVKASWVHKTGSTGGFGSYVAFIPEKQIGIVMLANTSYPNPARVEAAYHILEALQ

For CC(O)[C@@H]1C(=O)N2C(C(=O)OCc3ccccc3)=C([S+]([O-])c3ccccc3)C[C@H]12 (relative stereo) [Compound 82, Benzyl trans-6-(1-hydroxyethyl)-7-oxo-3-phenylsulphinyl-1-azabicyclo[3.2.0]hept-2-ene-2-carboxylate], the IC50 (β-lactamase, E. Coli JT4 [1]) was 31.6 µM, the IC50 [2] was 46.2 µM and the “concentration of compound for 50% inhibition of enzyme” value [3] was 2 µg/mL. For the same molecule, the inhibition at 50 µg/mL [4] was 20%.
In the case of CC[S+]([O-])C1=C(C(=O)OCc2ccccc2)N2C(=O)[C@@H](C(C)(C)O)[C@H]2C1 (relative stereo) [Compound 84, Benzyl 3-ethylsulphinyl-trans-6-(2-hydroxy-2-propyl)-7-oxo-1-azabicyclo[3.2.0]hept-2-ene-2-carboxylate], the inhibition at 20 µg/mL (β-lactamase, E. Coli JT4 [5]; [13]) is reported as 16%, the IC50 [6] is reported as 10.3 µM and the “concentration of compound for 50% inhibition of enzyme” value (β-lactamase, Ps aerug A [7]; maximum concentration 20 μg/ml) is reported as 12.1 µg/mL.
Molecule CC[S+]([O-])C1=C(C(=O)OCc2ccccc2)N2C(=O)[C@@H](C(C)(C)O)[C@H]2C1 (relative stereo) [Compound 86, Benzyl 3-ethylsulphinyl-trans-6-(2-hydroxy-2-propyl)-7-oxo-1-aza-bicyclo[3.2.0]hept-2-ene-2-carboxylate] has an IC50 [6] of 6.62 µM.
For CC[S+]([O-])C1=C(C(=O)OCc2ccccc2)N2C(=O)[C@H](C(C)(C)O)[C@H]2C1 (relative stereo) [Compound 88, Benzyl 3-ethylsulphinyl-cis-6-(2-hydroxy-2-propyl)-7-oxo-1-azabicyclo[3.2.0]hept-2-ene-2-carboxylate], the IC50 (β-lactamase, E. Coli JT4 [5]; [14]) was 21.2 µM, the IC50 [6] was 21.7 µM and the “amount of inhibition at maximum concentration” value (“amount of inhibition” below) ([8]; at 20 μg/ml) was 13%. The “amount of inhibition” value (β-lactamase, Ps aerug A [7]) was 23% and the inhibition at 20 µg/mL [9] was 19%.
With CC[S+]([O-])C1=C(C(=O)OCC(=O)c2ccc(Br)cc2)N2C(=O)C(CC=CC(=O)OC)C2C1 (single isomer, unassigned) [Compound 73, p-Bromophenacyl 3-ethylsulphinyl-6-(3-methoxycarbonylprop-2-en-1-yl)-7-oxo-1-azabicyclo[3.2.0]hept-2-ene-2-carboxylate] the inhibition at 20 µg/mL [6] was 31% and the “concentration of compound for 50% inhibition of enzyme” value [8] was 1.2 µg/mL.
In the case of CC[S+]([O-])C1=C(C(=O)OCc2ccccc2)N2C(=O)CC2C1 (centres unmarked) [Compound 55, Benzyl 3-ethylsulphinyl-7-oxo-1-azabicyclo[3.2.0]hept-2-ene-2-carboxylate], the inhibition at 20 µg/mL (β-lactamase, E. Coli JT4 [5]) is reported as 28%, the “concentration of compound for 50% inhibition of enzyme” value [8] is reported as 4 µg/mL and the ED50 (Escherichia coli 8; Escherichia coli, 8, sc, 2.5 h, mouse i.p. infection with Escherichia coli 8, subcutaneous dosing 1, 1.5, 2, 2.5 hours after infection, total dose, read-out: CD50 Value mg/kg (total dose)) is reported as 5.2 mg/kg. For the same molecule, the “CD50 Value mg/kg (total dose)” value (Escherichia coli 8; mouse i.p. infection with Escherichia coli 8, subcutaneous dosing 1, 1.5, 2, 2.5 hours after infection) was 8.8 mg/kg and the “tolerance of maximum total dose” value [10] was “tolerated”.
With CC[S+]([O-])C1=C(C(=O)OCc2ccccc2)N2C(=O)CC2C1 (centres unmarked) [Compound 57, Benzyl 3-ethylsulphinyl-7-oxo-1-azabicyclo[3.2.0]hept-2-ene-2-carboxylate] the IC50 (β-lactamase, E. Coli JT4 [1]) was 28.2 µM, the inhibition at 50 µg/mL [2] was 19% and the “amount of inhibition” value ([3]; at 50 μg/ml (asterisked)) was 17%. The “concentration of compound for 50% inhibition of enzyme” value [11] was 3.5 µg/mL and the “amount of inhibition” value (β-lactamase, Ps aerug A [12]) was 47%.
With CC(=O)NCC[S+]([O-])C1=C(C(=O)OCc2ccccc2)N2C(=O)CC2C1 (centres unmarked) [Compound 63, Benzyl 3-(2-acetamidoethylsulphinyl)-7-oxo-1-azabicyclo[3.2.0]hept-2-ene-2-carboxylate] the inhibition at 20 µg/mL (β-lactamase, E. Coli JT4 [5]; [13]) was 29%, the inhibition at 20 µg/mL [6] was 16% and the “concentration of compound for 50% inhibition of enzyme” value [8] was 3.3 µg/mL.
Molecule CC(=O)Nc1ccc([S+]([O-])C2=C(C(=O)OCc3ccccc3)N3C(=O)CC3C2)cc1 (centres unmarked) [Compound 65, Benzyl 3-p-acetamidophenylsulphinyl-7-oxo-1-azabicyclo[3.2.0]hept-2-ene-2-carboxylate] has an IC50 (β-lactamase, E. Coli JT4 [1]) of 0.825 µM, an inhibition at 50 µg/mL [2] of 47% and an inhibition at 50 µg/mL [4] of 35%.
For CC(=O)Nc1ccc([S+]([O-])C2=C(C(=O)OCc3ccccc3)N3C(=O)CC3C2)cc1 (centres unmarked) [Compound 67, Benzyl 3-p-acetamidophenylsulphinyl-7-oxo-1-azabicyclo[3,2,0]hept-2-ene-2-carboxylate], the IC50 (β-lactamase, E. Coli JT4 [1]) was 1.84 µM and the IC50 [2] was 118 µM.
In the case of COC(=O)C=CCC1C(=O)N2C1CC(Cl)([S+]([O-])c1ccccc1)C2C(=O)OCc1ccccc1 (stereo not drawn) [Compound 68, Benzyl 3-chloro-6-(3-methoxycarbonylprop-2-ene-1-yl)-7-oxo-3-phenylsulphinyl-1-azabicyclo[3.2.0]heptane-2α-carboxylate], the IC50 (β-lactamase, E. Coli JT4 [5]; [14]) is reported as 15.9 µM, the inhibition at 20 µg/mL [6] is reported as 25% and the “concentration of compound for 50% inhibition of enzyme” value [8] is reported as 0.6 µg/mL.
In the case of COC(=O)C=CCC1C(=O)N2C(C(=O)OCc3ccccc3)=C([S+]([O-])c3ccccc3)CC12 (centres unmarked) [Compound 69, Benzyl 6-(3-methoxycarbonylprop-2-en-1-yl)-7-oxo-3-phenylsulphnyl-1-azabicyclo[3.2.0]hept-2-ene-2-carboxylate], the IC50 (β-lactamase, E. Coli JT4 [5]; [14]) is reported as 26.2 µM, the inhibition at 20 µg/mL [6] is reported as 23% and the “concentration of compound for 50% inhibition of enzyme” value [8] is reported as 2.4 µg/mL. The “amount of inhibition” value (β-lactamase, Ps aerug A [7]) was 44%.
With COC(=O)C=CCC1C(=O)N2C(C(=O)OCc3ccccc3)=C([S+]([O-])c3ccccc3)CC12 (centres unmarked) [Compound 71, Benzyl 6-(3-methoxycarbonylprop-2-en-1-yl)-7-oxo-3-phenylsulphinyl-1-azabicyclo[3.2.0]hept-2-ene-2-carboxylate] the IC50 (β-lactamase, E. Coli JT4 [5]; [14]) was 18.3 µM and the “concentration of compound for 50% inhibition of enzyme” value [8] was 2.0 µg/mL.
With CC[S+]([O-])C1=C(C(=O)OC2OC(=O)c3ccccc32)N2C(=O)C(CC=CC(=O)OC)C2C1 (centres unmarked) [Compound 78, Phthalidyl 3-ethylsulphinyl-6-(3-methoxycarbonylprop-2-en-1-yl)-7-oxo-1-azabicyclo[3.2.0]hept-2-ene-2-carboxylate] the inhibition at 20 µg/mL (β-lactamase, E. Coli JT4 [5]; [13]) was 16% and the IC50 [6] was 19.2 µM.
In the case of CC[S+]([O-])C1=C(C(=O)OCc2ccccc2)N2C(=O)C(Cc3ccccc3)C2C1 (centres unmarked) [Compound 80, Benzyl 6-benzyl-3-ethylsulphinyl-7-oxo-1-azabicyclo[3.2.0]hept-2-ene-2-carboxylate], the IC50 (β-lactamase, E. Coli JT4 [1]) is reported as 20.8 µM, the IC50 [2] is reported as 52 µM and the “concentration of compound for 50% inhibition of enzyme” value [3] is reported as 24 µg/mL.
